Reference: paper PMC7029851, “Antibacterial activity of novel dual bacterial DNA type II topoisomerase inhibitors” (PLoS ONE, 2020)
≈ marks a conversion by molar mass, not a printed value. Where a name gives a salt, the structure may show the parent alone. Read-outs that look alike come from different tables or passages of the source.

Columns and labels:
[1] = test system: E. coli clinical isolates (n = 36); assay: MIC, multidrug-resistant clinical isolates; type: cell-based, Escherichia coli; details: E. coli MDR clinical isolates (n = 36)
Procedure: (§1) The bacterial reference strains used in this study were purchased from ATCC (American Type Culture Collection) via LGC Standards (Middlesex, UK). […] Clinical MDR isolates were provided by Aptuit, the IHMA Europa Sàrl repository (Epalinges, Switzerland) and the Statens Serum Institute (Copenhagen, Denmark).
(§2) MICs were determined by the broth microdilution method (the agar dilution method was used only for N. gonorrhoeae) according to CLSI guidelines.
(§3) The results obtained using clinical isolates are reported as MIC50 and MIC90 values.

S. aureus ATCC 29213 [2] = assay: Minimal bactericidal concentration; type: cell-based, Staphylococcus aureus; details: Staphylococcus aureus, ATCC29213, ≥99.9% reduction of inoculum
Procedure: (§4) Minimal bactericidal concentrations (MBCs) were determined according to the procedure described by Knapp. Viable counts were performed after plates were incubated at 37°C for 24 hours. The MBC was defined as the lowest concentration that reduced the viability of the initial bacterial inoculum by ≥99.9%.

S. aureus BAA-1720 = assay: Minimal bactericidal concentration; type: cell-based, Staphylococcus aureus; details: Staphylococcus aureus, BAA1720, ≥99.9% reduction of inoculum
Procedure: as §4

S. aureus ATCC BAA-1720 = assay: Time-kill assay; type: cell-based, Staphylococcus aureus; details: 1× to 4× MIC, over 24 hours
Procedure: Time-kill experiments were performed according to the procedure reported by Knapp. […] A drug-free control was included in each experiment. The bacterial cultures were standardized to obtain an initial inoculum that ranged from 5×10^5 to 5×10^6 CFU/ml. The cultures were incubated at 37°C in a shaking bath. At 0, 2, 4, 8 and 24-hour intervals, viable counts were performed by spotting (in triplicate) 10 μl aliquots of suitable dilutions of the cultures onto Mueller-Hinton agar (MHA, Oxoid, Basingstoke, UK) plates. After incubation at 37°C for 24 hours, the bactericidal activity, namely, the ability to reduce the initial inoculum by 3 log10 CFU/ml, was assessed for each tested concentration over time.

S. aureus ATCC 29213 [3] = assay: Post-antibiotic effect (PAE); type: cell-based, Staphylococcus aureus
Procedure: A drug-free control was included in each experiment. After being exposed to the drug for 1 hour, viable counts were conducted in triplicate by spotting aliquots (10 μl) of suitable dilutions onto MHA plates. The drugs were removed by diluting the bacterial cultures (1:1000) in Cation-Adjusted Mueller-Hinton Broth (CAMHB; Sigma-Aldrich). The diluted cultures were incubated in a shaking bath at 37°C. To monitor the ongoing suppression of bacterial growth over time (5 hours), aliquots from each broth culture were periodically collected, diluted and plated to perform subsequent viable counts (in triplicate).

E. coli ATCC 25922 = assay: Minimal bactericidal concentration; type: cell-based, Escherichia coli; details: Escherichia coli, ATCC25922, ≥99.9% reduction of inoculum
Procedure: as §4

[4] = test system: E. faecalis clinical isolates (n = 12) vanA (6)/vanB (6); assay: MIC, multidrug-resistant clinical isolates; type: cell-based; details: for MIC: read-out: MIC range
Procedure: as §1, §2, §3

[5] = test system: E. faecium clinical isolates (n = 12) vanA (6)/vanB (6); assay: MIC, multidrug-resistant clinical isolates; type: cell-based; details: for MIC: read-out: MIC range
Procedure: as §1, §2, §3

[6] = test system: A. baumannii clinical isolates (n = 10); assay: microbe, parasite or virus in culture; type: cell-based, Acinetobacter baumannii; details: Acinetobacter baumannii
Procedure: as §1, §2, §3

C. difficile ATCC 700057 = assay: MIC, broth microdilution; type: cell-based, Clostridium difficile; details: Clostridioides difficile, ATCC700057
Procedure: MICs were determined by the broth microdilution method (the agar dilution method was used only for N. gonorrhoeae) according to CLSI guidelines. […] The MIC values of antibiotics used in clinical practice were interpreted according to the susceptibility interpretive criteria reported in the appropriate CLSI Tables (M100-S25, CLSI, 2015).

[7] = test system: C. difficile clinical isolates (n = 21); assay: MIC, multidrug-resistant clinical isolates; type: cell-based, Clostridium difficile; details: Clostridioides difficile; for MIC: read-out: MIC range
Procedure: as §1, §2, §3

[8] = test system: S. aureus clinical isolates (n = 10); assay: microbe, parasite or virus in culture; type: cell-based, Staphylococcus aureus
Procedure: as §1, §2, §3

[9] = test system: N. gonorrhoeae clinical isolates (n = 38); assay: microbe, parasite or virus in culture; type: cell-based, Neisseria gonorrhoeae
Procedure: as §1, §2, §3

[10] = Escherichia coli, read-out: MIC50
[11] = Escherichia coli, read-out: MIC90
[12] = E. faecalis clinical isolates (n = 12), vanA (6)/vanB (6)
[13] = E. faecium clinical isolates (n = 12), vanA (6)/vanB (6)
[14] = C. difficile clinical isolates (n = 21), read-out: MIC50
[15] = C. difficile clinical isolates (n = 21), read-out: MIC90
[16] = C. difficile clinical isolates (n = 21)

## CNC(C)C1CCC(N)C(OC2C(N)CC(N)C(OC3OCC(C)(O)C(NC)C3O)C2O)O1 (stereo not drawn) [gentamicin, gentamicin sulfate]
[1]; [10]
  MIC50: 2 µg/mL
[1]; [11]
  MIC90: 32 µg/mL

## O=C(O)c1cn(C2CC2)c2cc(N3CCNCC3)c(F)cc2c1=O [ciprofloxacin, Ciprofloxacin hydrochloride, reference compound]
S. aureus ATCC 29213 [2]
  MBC: 1 µg/mL
S. aureus BAA-1720
  MBC: 256 µg/mL
S. aureus ATCC BAA-1720
  Bactericidal activity in time-kill (reduction of 3 log10 CFU/ml): no bactericidal effect
S. aureus ATCC 29213 [3]; 1-hour exposure at 1× and 4× MIC
  PAE: 25 min
S. aureus ATCC 29213 [3]; 1-hour exposure at 16× MIC
  PAE: 35 min
E. coli ATCC 25922
  MBC: 0.016 µg/mL

## colistin sulfate
[1]
  MIC50: 0.5 µg/mL
  MIC90: 0.5 µg/mL

## CN(C)[C@@H]1C(O)=C(C(N)=O)C(=O)[C@@]2(O)C(O)=C3C(=O)c4c(O)cccc4[C@@](C)(O)[C@H]3C[C@@H]12 [tetracycline, tetracycline hydrochloride]
[1]; [10]
  MIC50: 16 µg/mL
[1]; [11]
  MIC90: > 64 µg/mL

## teicoplanin [reference compound]
[4]; [12]
  MIC50: >64 µg/mL
  MIC90: >64 µg/mL
[5]; [13]
  MIC50: 1 µg/mL
  MIC90: 64 µg/mL

## C[C@H]1COc2c(N3CCN(C)CC3)c(F)cc3c(=O)c(C(=O)O)cn1c23 [levofloxacin]
[1]
  MIC range: 0.03 to 32 µg/mL
[1]; [10]
  MIC50: 4 µg/mL (≈ 11.1 µM)
[1]; [11]
  MIC90: 16 µg/mL (≈ 44.3 µM)

## C[C@@H](O)[C@H]1C(=O)N2C(C(=O)O)=C(S[C@@H]3CN[C@H](C(=O)N(C)C)C3)[C@H](C)[C@H]12 [meropenem, reference compound]
[6]
  MIC50: 8 µg/mL (≈ 20.9 µM)
  MIC90: ≥ 8 µg/mL

## CC1(C)S[C@@H]2[C@H](NC(=O)Cc3ccccc3)C(=O)N2[C@H]1C(=O)O [penicillin, penicillin G potassium, reference compound]
[4]; Enterococcus faecalis
  MIC50: 4 µg/mL
  MIC90: 8 µg/mL
  MIC: 2 to 16 µg/mL
[5]; Enterococcus faecium
  MIC50: > 64 µg/mL
  MIC90: > 64 µg/mL
  MIC: > 64 µg/mL

## Cc1ncc([N+](=O)[O-])n1CCO [metronidazole, reference compound]
C. difficile ATCC 700057
  MIC: 0.25 µg/mL (≈ 1.46 µM)
[7]; [14]
  MIC50: 0.5 µg/mL (≈ 2.92 µM)
[7]; [15]
  MIC90: 1 µg/mL (≈ 5.84 µM)
[7]; [16]
  MIC: 0.25 to 2 µg/mL (≈ 1.46 to 11.7 µM)

## CCCCCCCCCC(=O)N[C@@H](Cc1c[nH]c2ccccc12)C(=O)N[C@H](CC(N)=O)C(=O)N[C@@H](CC(=O)O)C(=O)N[C@@H]1C(=O)NCC(=O)N[C@@H](CCCN)C(=O)N[C@@H](CC(=O)O)C(=O)N[C@H](C)C(=O)N[C@@H](CC(=O)O)C(=O)NCC(=O)N[C@H](CO)C(=O)N[C@@H]([C@H](C)CC(=O)O)C(=O)N[C@@H](CC(=O)c2ccccc2N)C(=O)O[C@@H]1C [daptomycin, reference compound]
[4]; Enterococcus faecalis
  MIC50: 1 µg/mL (≈ 0.617 µM)
  MIC90: 1 µg/mL (≈ 0.617 µM)
  MIC: 0.5 to 2 µg/mL (≈ 0.309 to 1.23 µM)
[5]; Enterococcus faecium
  MIC50: 4 µg/mL (≈ 2.47 µM)
  MIC90: 4 µg/mL (≈ 2.47 µM)
  MIC: 2 to 4 µg/mL (≈ 1.23 to 2.47 µM)

## C[C@@H](O)[C@H]1C(=O)N2C(C(=O)O)=C(SCCN=CN)C[C@H]12 [imipenem, imipenem monohydrate, reference compound]
[7]; [14]
  MIC50: 8 µg/mL
[7]; [15]
  MIC90: 16 µg/mL
[7]; [16]
  MIC: 2 to 16 µg/mL
[1]; Escherichia coli
  MIC: 0.06 to 16 µg/mL
[1]; [10]
  MIC50: 0.12 µg/mL
[1]; [11]
  MIC90: 4 µg/mL

## CCc1c(Cl)c(O)c(Cl)c(O)c1C(=O)O[C@H]1[C@H](O)[C@H](OC)[C@H](OC/C2=C\C=C\C[C@H](O)/C(C)=C/[C@H](CC)[C@@H](O[C@@H]3OC(C)(C)[C@@H](OC(=O)C(C)C)[C@H](O)[C@@H]3O)/C(C)=C/C(C)=C/C[C@@H]([C@@H](C)O)OC2=O)O[C@@H]1C [fidaxomicin, reference compound]
[7]; [16]
  MIC: 0.03 to 1 µg/mL (≈ 0.0284 to 0.945 µM)

## CN[C@H](CC(C)C)C(=O)N[C@H]1C(=O)N[C@@H](CC(N)=O)C(=O)N[C@H]2C(=O)N[C@H]3C(=O)N[C@H](C(=O)N[C@H](C(=O)O)c4cc(O)cc(O)c4-c4cc3ccc4O)[C@H](O)c3ccc(c(Cl)c3)Oc3cc2cc(c3O[C@@H]2O[C@H](CO)[C@@H](O)[C@H](O)[C@H]2O[C@H]2C[C@](C)(N)[C@H](O)[C@H](C)O2)Oc2ccc(cc2Cl)[C@H]1O [vancomycin, vancomycin hydrochloride, reference compound]
[7]
  MIC50: 2 µg/mL
  MIC90: 2 µg/mL
  MIC: 1 to 2 µg/mL
[4]; Enterococcus faecalis
  MIC50: > 64 µg/mL
  MIC90: > 64 µg/mL
[5]; Enterococcus faecium
  MIC50: > 64 µg/mL
  MIC90: > 64 µg/mL
  MIC: > 64 µg/mL
[8]; S. aureus MDR clinical isolates (n = 10)
  MIC range: 1 to 4 µg/mL
[8]; Staphylococcus aureus
  MIC50: 1 µg/mL
  MIC90: 2 µg/mL

## CO/N=C(\C(=O)N[C@@H]1C(=O)N2C(C(=O)O)=C(CSc3nc(=O)c(=O)[nH]n3C)CS[C@H]12)c1csc(N)n1 [ceftriaxone, ceftriaxone sodium, reference compound]
[9]
  MIC range: ≤0.002 to 0.12 µg/mL
[9]; Neisseria gonorrhoeae
  MIC50: 0.012 µg/mL
  MIC90: 0.094 µg/mL
[1]
  MIC range: 0.03 to 32 µg/mL
[1]; [10]
  MIC50: 1 µg/mL
[1]; [11]
  MIC90: 32 µg/mL

## CCC[C@@H]1C[C@@H](C(=O)N[C@@H]([C@H]2O[C@H](SC)[C@H](O)[C@@H](O)[C@H]2O)[C@H](C)Cl)N(C)C1 [clindamycin, clindamycin hydrochloride, reference compound]
[7]; [14]
  MIC50: 8 µg/mL
[7]; [15]
  MIC90: 32 µg/mL
[7]; [16]
  MIC: 4 to 32 µg/mL

## CC1(C)S[C@@H]2[C@H](NC(=O)[C@H](N)c3ccccc3)C(=O)N2[C@H]1C(=O)O [ampicillin, reference compound]
[4]; Enterococcus faecalis
  MIC50: 2 µg/mL (≈ 5.72 µM)
  MIC90: 2 µg/mL (≈ 5.72 µM)
  MIC: 1 to 4 µg/mL (≈ 2.86 to 11.4 µM)
[5]; Enterococcus faecium
  MIC50: > 64 µg/mL
  MIC90: > 64 µg/mL
  MIC: > 64 µg/mL
[1]; [10]
  MIC50: > 64 µg/mL
[1]; [11]
  MIC90: > 64 µg/mL

## CC(=O)NC[C@H]1CN(c2ccc(N3CCOCC3)c(F)c2)C(=O)O1 [linezolid, reference compound]
[4]; Enterococcus faecalis
  MIC50: 2 µg/mL (≈ 5.93 µM)
  MIC90: 2 µg/mL (≈ 5.93 µM)
  MIC: 1 to 2 µg/mL (≈ 2.96 to 5.93 µM)
[5]; Enterococcus faecium
  MIC50: 2 µg/mL (≈ 5.93 µM)
  MIC90: 2 µg/mL (≈ 5.93 µM)
  MIC: 2 µg/mL (≈ 5.93 µM)
